Reference: ChEMBL document CHEMBL1201862, “PubChem BioAssay data set” (2004)
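Test compounds were applied to cells in 96-well plates for 48 hours at 5 doses. Here, GI50 denotes the concentration required for 50% inhibition of growth.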 The source made the active and inactive calls. No stated cut-off is given here; in the data, active = GI50 up to about 1.1 µM and inactive = higher.

Experiments:
Assay in all cases: inhibition of tumour cell growth, NCI panel, 48 h
[1] = system: 786-0
[2] = system: A498
[3] = system: COLO 205
[4] = system: HCC 2998
[5] = system: IGROV-1
[6] = system: MDA-N
[7] = system: MOLT-4
[8] = system: Malme-3M
[9] = system: RXF 393
[10] = system: SF-268
[11] = system: SF-295
[12] = system: SK-OV-3
[13] = system: SNB-75
[14] = system: T47D
[15] = system: TK-10
[16] = system: U-251
[17] = system: UACC-257
[18] = system: UACC-62
[19] = system: HOP-92
[20] = system: NCI-H460

Row | SMILES | GI50 [1] | GI50 [2] | GI50 [3] | GI50 [4] | GI50 [5] | GI50 [6] | GI50 [7] | GI50 [8] | GI50 [9] | GI50 [10] | GI50 [11] | GI50 [12] | GI50 [13] | GI50 [14] | GI50 [15] | GI50 [16] | GI50 [17] | GI50 [18] | GI50 [19] | GI50 [20]
1 | Cc1ccc2c(c1)C(=O)c1ccc(C)nc1C2=O | 85.9 µM (inactive) | > 100 µM (inactive) | 31.9 µM (inactive) | 31.3 µM (inactive) | 27.7 µM (inactive) | 16.6 µM (inactive) | > 100 µM (inactive) | 8.71 µM (inactive) | > 100 µM (inactive) | 34.9 µM (inactive) | 24.6 µM (inactive) | > 100 µM (inactive) | 42.4 µM (inactive) | 62.7 µM (inactive) | > 100 µM (inactive) | 32.4 µM (inactive) | 24 µM (inactive) | 21.9 µM (inactive) |  | 
2 | COc1ccc2c(c1OC(C)=O)C1=CC(=O)CCC13CCNC3C2 (stereo not given) | > 100 µM (inactive) |  | > 100 µM (inactive) | > 100 µM (inactive) | > 100 µM (inactive) | > 100 µM (inactive) | > 100 µM (inactive) | > 100 µM (inactive) | > 100 µM (inactive) | > 100 µM (inactive) | > 100 µM (inactive) | > 100 µM (inactive) | > 100 µM (inactive) | > 100 µM (inactive) | > 100 µM (inactive) | > 100 µM (inactive) | > 100 µM (inactive) | > 100 µM (inactive) | > 100 µM (inactive) | > 100 µM (inactive)
3 | O=c1[nH]c(=O)c2ncn(-c3ccc([N+](=O)[O-])cn3)c2[nH]1 | > 100 µM (inactive) | > 100 µM (inactive) | > 100 µM (inactive) | > 100 µM (inactive) |  |  | > 100 µM (inactive) | 2.79 µM (inactive) | > 100 µM (inactive) | > 100 µM (inactive) | > 100 µM (inactive) | > 100 µM (inactive) | > 100 µM (inactive) | > 100 µM (inactive) | > 100 µM (inactive) | > 100 µM (inactive) | > 100 µM (inactive) | 74.1 µM (inactive) | > 100 µM (inactive) | > 100 µM (inactive)
4 | COC(=O)C1=C(N)C2=C(N)Oc3ccccc3C2CC1=C(C#N)C#N (stereo not given) | 30.9 µM (inactive) | 25.8 µM (inactive) | 22.5 µM (inactive) | 17.9 µM (inactive) | 18.4 µM (inactive) |  | 33.4 µM (inactive) | 21.6 µM (inactive) | 26 µM (inactive) | 29.7 µM (inactive) | 25 µM (inactive) | 31.4 µM (inactive) | 18 µM (inactive) | 25.9 µM (inactive) | 25.6 µM (inactive) | 35.5 µM (inactive) | 34.7 µM (inactive) | 18.1 µM (inactive) |  | 
5 | O=S(=O)(O)C(c1ccccc1)C(O)c1ccccc1 (stereo not given) | > 100 µM (inactive) | > 100 µM (inactive) | > 100 µM (inactive) |  | > 100 µM (inactive) | > 100 µM (inactive) |  | > 100 µM (inactive) | > 100 µM (inactive) | > 100 µM (inactive) | > 100 µM (inactive) | > 100 µM (inactive) | > 100 µM (inactive) | > 100 µM (inactive) | > 100 µM (inactive) | > 100 µM (inactive) | 46.5 µM (inactive) | > 100 µM (inactive) | > 100 µM (inactive) | > 100 µM (inactive)
6 | Nc1nc(SCC(=O)c2ccc(Br)cc2)c2nc[nH]c2n1 | 42.2 µM (inactive) | 51.6 µM (inactive) | 17 µM (inactive) |  | 13.6 µM (inactive) | 34.8 µM (inactive) |  | 29.4 µM (inactive) | 41.9 µM (inactive) | 23 µM (inactive) | 34.8 µM (inactive) | 34.5 µM (inactive) | 28 µM (inactive) | 25.8 µM (inactive) | 20.8 µM (inactive) | 44.4 µM (inactive) | 30.5 µM (inactive) | 37.7 µM (inactive) | 17.3 µM (inactive) | 28.7 µM (inactive)
7 | COc1ccc2c(c1C)C(=O)C(O)(CC=C(C)C)O2 (stereo not given) | > 100 µM (inactive) | > 100 µM (inactive) | > 100 µM (inactive) | > 100 µM (inactive) | > 100 µM (inactive) | > 100 µM (inactive) | > 100 µM (inactive) | > 100 µM (inactive) |  | > 100 µM (inactive) | > 100 µM (inactive) | > 100 µM (inactive) | > 100 µM (inactive) | > 100 µM (inactive) | > 100 µM (inactive) | > 100 µM (inactive) | > 100 µM (inactive) | > 100 µM (inactive) |  | > 100 µM (inactive)
8 | COc1cc(C2SCCCCCCCCCCSC(c3ccc(O)c(OC)c3)SCCCCCCCCCCS2)ccc1O (stereo not given) | > 100 µM (inactive) | > 100 µM (inactive) | > 100 µM (inactive) |  | > 100 µM (inactive) | > 100 µM (inactive) | 26.3 µM (inactive) | 58.1 µM (inactive) | > 100 µM (inactive) | 52.1 µM (inactive) | > 100 µM (inactive) | > 100 µM (inactive) | 52.6 µM (inactive) | > 100 µM (inactive) | > 100 µM (inactive) | > 100 µM (inactive) | > 100 µM (inactive) | > 100 µM (inactive) | > 100 µM (inactive) | 
9 | CC(C)(C)c1cc2c(O)c(c1)COCc1cc(C(C)(C)C)cc(c1O)COCc1cc(C(C)(C)C)cc(c1O)COC2 | 19.1 µM (inactive) | 46.6 µM (inactive) | > 100 µM (inactive) | > 100 µM (inactive) | > 100 µM (inactive) |  | 48 µM (inactive) |  | 32.4 µM (inactive) |  | > 100 µM (inactive) | > 100 µM (inactive) | 9.35 µM (inactive) | > 100 µM (inactive) | > 100 µM (inactive) | > 100 µM (inactive) | > 100 µM (inactive) | > 100 µM (inactive) | > 100 µM (inactive) | > 100 µM (inactive)
10 | O=c1c2ccccc2sc2c(CO)ccc(NCCN3CCCCC3)c12 | 2.47 µM (inactive) | 3.15 µM (inactive) | 1.92 µM (inactive) |  | 3.93 µM (inactive) | 3.08 µM (inactive) | 1.04 µM (active) | 2.24 µM (inactive) | 2.39 µM (inactive) | 3.32 µM (inactive) | 3.61 µM (inactive) | 3.91 µM (inactive) | 5.77 µM (inactive) | 5.25 µM (inactive) | 3.48 µM (inactive) | 3.79 µM (inactive) | 2.07 µM (inactive) | 4.33 µM (inactive) | 5.83 µM (inactive) | 2.68 µM (inactive)
11 | Fc1cccc(F)c1C1SCc2nc3ccc(Cl)cc3n21 (stereo not given) | > 100 µM (inactive) |  | > 100 µM (inactive) | > 100 µM (inactive) | > 100 µM (inactive) | > 100 µM (inactive) | > 100 µM (inactive) | > 100 µM (inactive) | > 100 µM (inactive) | > 100 µM (inactive) | > 100 µM (inactive) | > 100 µM (inactive) | 41.1 µM (inactive) | 95.3 µM (inactive) | > 100 µM (inactive) | > 100 µM (inactive) | > 100 µM (inactive) | > 100 µM (inactive) | > 100 µM (inactive) | > 100 µM (inactive)
12 | CC[N+](C)(CC)CCC(O)(c1ccccc1)c1ccccc1 | > 100 µM (inactive) | > 100 µM (inactive) | > 100 µM (inactive) | > 100 µM (inactive) | > 100 µM (inactive) | > 100 µM (inactive) | > 100 µM (inactive) | > 100 µM (inactive) | > 100 µM (inactive) | > 100 µM (inactive) | > 100 µM (inactive) | > 100 µM (inactive) | > 100 µM (inactive) | > 100 µM (inactive) | > 100 µM (inactive) | > 100 µM (inactive) | > 100 µM (inactive) | > 100 µM (inactive) |  | > 100 µM (inactive)
13 | CC(C(=O)N1C(=O)N(C(=O)[C@H](C)C(O)c2ccccc2)[C@H](c2ccccc2)[C@H]1c1ccccc1)[C@@H](O)c1ccccc1 (stereo not given in full) | 29.2 µM (inactive) | 24.3 µM (inactive) | 18.7 µM (inactive) | 36.7 µM (inactive) | 12 µM (inactive) | 20 µM (inactive) |  |  |  | 38.2 µM (inactive) | 29.2 µM (inactive) | 83.6 µM (inactive) | 28 µM (inactive) | 68.9 µM (inactive) | 41.2 µM (inactive) | 35.9 µM (inactive) | 28.4 µM (inactive) | 14.6 µM (inactive) | 25.6 µM (inactive) | 22.4 µM (inactive)
14 | COc1ccc(NC(=O)/C(O)=C/C(=O)c2ccccc2)cc1 | > 10 µM (inactive) |  | > 10 µM (inactive) | > 10 µM (inactive) | 7.38 µM (inactive) | > 10 µM (inactive) | 1.95 µM (inactive) | > 10 µM (inactive) | > 10 µM (inactive) | > 10 µM (inactive) | > 10 µM (inactive) | > 10 µM (inactive) | > 10 µM (inactive) | > 10 µM (inactive) | > 10 µM (inactive) |  | > 10 µM (inactive) | > 10 µM (inactive) | > 10 µM (inactive) | 
15 | Cc1c(F)c(NC(=O)CN(C)C)c2c(=O)cc(-c3ccc(NC(=O)CN(C)C)c(F)c3)oc2c1F | 15.9 µM (inactive) | 1.35 µM (inactive) | 10.9 µM (inactive) | 0.678 µM (active) | 15.7 µM (inactive) | 16.4 µM (inactive) | 11.2 µM (inactive) | 26.3 µM (inactive) | 12.8 µM (inactive) | 16.6 µM (inactive) | 15.5 µM (inactive) | 16.8 µM (inactive) |  | 24.2 µM (inactive) | 7.57 µM (inactive) | 14.2 µM (inactive) | 21.9 µM (inactive) | 19.1 µM (inactive) |  | 9.35 µM (inactive)
